Laboratory results as given in patent US20220387365A1, “TUCARESOL DERIVATIVES AND USES THEREOF” (BeyondSpring Pharmaceuticals, Inc., priority 2019, published 2022).

Assays:
[1] = Stability in C57BL/6 K2EDTA plasma at 22° C. over 1 hour by LC; assay type: in vitro ADME, mouse; conditions: for Remaining %: mouse plasma, 2,000 ng/mL, 22°C
Experimental: (§1) Tucaresol, Compound B02, Compound C01, Compound C02-1, and Compound C02 were dosed once, by IV bolus (3 mg/kg in 20% hydroxyprophyl-13-cyclodextrin with 1 eq NaOH) or PO (10 mg/kg in 1% carboxymethylcellulose/0.1% tween-80 in water), to non-fasted male C57BL/6 mice. Animals were bled from the dorsal metatarsal vein (from the heart for 24 hour time point) for K2-EDTA plasma 0.083 (for IV only), 0.25, 0.5, 1, 2, 4, 8, and 24 hours after dosing. The plasma concentration of the dosed tucaresol or compound were measured by LC/MS/MS (I-CMS-8060 instrument for MS). PK parameters were then calculated with WinNonlin 6.1. For Compounds C01, CO2 and CO2-1, stability in C57BL/6 K2EDTA plasma was also evaluated at 22° C. over 1 hour by utilizing LC.
Compounds C01 and C02-1 are unstable at 22° C.

[2] = Intravenous and oral dosing pharmacokinetic screen, plasma concentration by LC/MS/MS; parameters: species or system C57BL/6 mice; conditions: male, C57BL/6, mouse, in vivo
Experimental: as §1

[3] = iv, 3 mg/kg, Compound C02 concentration
[4] = iv, 3 mg/kg, Compound C02 concentration, Mean

## O=Cc1c(OCc2ccc(C(=O)O)cc2)cccc1OC1O[C@H](CO)[C@@H](O)[C@H](O)[C@H]1O (stereo partly drawn) [Compound C02]
[1]; 22° C.
  mouse plasma stability (in words): initial instability
[1]; 0 min
  Remaining %: 100%
[1]; 5 min
  Remaining %: 62.3%
[1]; 15 min
  Remaining %: 79.6%
[1]; 30 min
  Remaining %: 68.7%
[1]; 60 min
  Remaining %: 61.7%
[1]; mouse plasma, 22° C., through 1 hour
  level of starting at which the compound leveled off: 60-70%
[2]
  AUClast/D: 947 ng·h/mL per mg/kg
  T1/2: 3.94 h
  Tmax: 0.500 h
[2]; iv, 3 mg/kg, 0.083 h
  Tucaresol concentration, Mean: 28.3 ng/mL
[2]; iv, 3 mg/kg, 0.25 h
  Tucaresol concentration, Mean: 128 ng/mL
[2]; iv, 3 mg/kg, 0.5 h
  Tucaresol concentration, Mean: 165 ng/mL
[2]; iv, 3 mg/kg, 1 h
  Tucaresol concentration, Mean: 123 ng/mL
[2]; iv, 3 mg/kg, 2 h
  Tucaresol concentration, Mean: 114 ng/mL
[2]; iv, 3 mg/kg, 4 h
  Tucaresol concentration, Mean: 76.1 ng/mL
[2]; iv, 3 mg/kg, 8 h
  Tucaresol concentration, Mean: 37.1 ng/mL
[2]; [3]
  concentration at 0.083 h: 1830 ng/mL
  concentration at 0.25 h: 537 ng/mL
[2]; [4]
  concentration at 0.083 h: 2390 ng/mL
  concentration at 0.25 h: 578 ng/mL
  concentration at 0.5 h: 220 ng/mL
[2]; po, 10 mg/kg, 0.25 h
  Tucaresol concentration, Mean: 972 ng/mL
[2]; po, 10 mg/kg, 0.5 h
  Tucaresol concentration, Mean: 1398 ng/mL
[2]; po, 10 mg/kg, 1 h
  Tucaresol concentration, Mean: 915 ng/mL
[2]; po, 10 mg/kg, 2 h
  Tucaresol concentration, Mean: 532 ng/mL
[2]; po, 10 mg/kg, 4 h
  Tucaresol concentration, Mean: 390 ng/mL
[2]; po, 10 mg/kg, 8 h
  Tucaresol concentration, Mean: 241 ng/mL
[2]; po, 10 mg/kg, 24 h
  Tucaresol concentration, Mean: 12.3 ng/mL
[2]; po, 10 mg/kg, C02 concentration
  concentration at 0.5 h: 59.1 ng/mL
